Laboratory results published in article PMC11207111, “Assessment of the Activity of Nitroisoxazole Derivatives against Trypanosoma cruzi” (Molecules, 2024).

Experiments:
[1] = Cyclic voltammetry (reduction of the nitro group); assay type: physicochemical; set-up: key to −EpcI / −EpcII / −EpaII / −EpaI: potentials in V vs Ag/AgCl; |ΔEp|: unit not given here
Description: The chemistry mechanism of reduction in nitroisoxazole derivatives was investigated using cyclic voltammetry.
The peak near −1.32 V corresponds to a quasi-reversible one-electron transfer, according to the criteria of Nicholson–Shain [26] (Table 1), attributable to the species −NO2/NO2.− . The latter species stable anion radical at room temperature. […] An irreversible peak at −0.93 V to the mono-electronic transfer −HNO2/HNO2.− is observed, coupled with a chemical reaction associated with […] of the formed radical. This was evidenced by the addition of NaOH (1 M), which caused a decrease in the Ic peak (Figure 2c).
As previously described, an irreversible signal assigned to hydroxylamine oxidation to a nitroso derivative is also observed for N-acylhydrazones organometallic compounds with a pendant 5-nitrofuryl group. […] Compound 7, which has the least negative reduction potential, can be attributed to introducing a nitro group in the para position of the nitroisoxazole ring. This effect can also be observed in derivatives containing halogens in the same position.
Electrochemical characterization of the new compounds was performed through cyclic voltammetry (CV) on a 693 VA Metrohm instrument (Tokyo, Japan) equipped with a 694 VA Stand converter and 693 VA processor. Potentials were recorded against the Ag/AgCl reference electrode; a hanging drop of mercury (HDME) was used as a working electrode, and platinum was used as an auxiliary electrode. Tetrabutylammonium perchlorate (TBAP, 0.1 M) in DMSO was used as a supporting electrolyte under an N2 atmosphere at room temperature. Using Nicholson´s procedure, the Ipa/Ipc values (RNO2/RNO2^−) were measured from each cyclic voltammogram with a scan rate between 0.1 and 2.5 V/s.

Vero mammalian cells = assay: Cytotoxicity (MTT) on Vero cells; assay type: cell-based; conditions: Chlorocebus sabaeus, 24 h
Method: Additionally, the cytotoxicity of the compounds on VERO mammalian cells was assessed (Table 4). […] It is observed that the majority of the derivatives present considerable cytotoxicity. […] RPMI 1640 medium) for 24 h. […] The effects of the compounds on trypomastigote and Vero cell viability were evaluated by tetrazolium salt reduction assay (MTT). […] The plates were kept overnight at 37 °C (28 °C for epimastigotes), and the optical density (OD) was determined using a 96-well microplate reader (Vantaa, Finland) at 570 nm. Under these conditions, the OD is directly proportional to each well’s viable number of cells. The experiments were performed in triplicate across three different assays.

[2] = ORAC-FL antioxidant capacity; conditions: relative to Trolox; phosphate buffer 75 mM, pH 7.4, 37 °C
Method: To corroborate the generation of the nitro radical, the antioxidant capacity of the series under study was determined by ORAC-FL methodology, employing a fluorescent probe to capture oxygen-centered radicals (Table 2). The ORAC-FL values of the studied compounds are close to the reference value of Trolox, indicating a low antioxidant capacity. For compounds (1-3), the presence of amino substituents decreases antioxidant activity due to their […] characteristics, preventing the presence of labile hydrogens. […] Compounds 4 and 10 present similar ORAC indexes as aromatic rings with high electron density insert the transfer of labile protons. Antioxidant capacity was determined using the ORAC-fluorescence methodology (ORAC-FL). The analysis used a 96-well white polystyrene plate reader (EnSpire multimode PerkinElmer, Waltham, MA, USA). The reaction was carried out in phosphate buffer (75 mM, pH 7.4). […] A blank with FL and AAPH, using dimethyl sulfoxide instead of the antioxidant solution, was used in each assay. […] The inhibitor capacity was expressed as ORAC-FL values and quantified by integrating the area under the curve (AUCNET). All reaction mixtures were prepared in triplicate, and at least three independent assays were performed for each sample. The area under the fluorescence decay curve (AUC) was calculated by integrating the fluorescence decay where F0 is the initial fluorescence read at 0 min, and F is the fluorescence read at the time. The AUCNET corresponding to the sample was calculated by subtracting the AUC corresponding to the blank. Data were processed using Origin […].5 SR2 (San Francisco, CA, USA). The ORAC-FL indices were calculated according to the following Equation (1): (1) ORAC-[…]]

[3] = system: trypomastigote of T. cruzi Dm28; assay: Trypanocidal activity (MTT) on trypomastigotes; assay type: cell-based; conditions: Trypanosoma cruzi; for killing at 100 µM: 24 h, n.a = not active, read-out: % T. cruzi Trypomastigote (trypanocidal effect); for IC50: T. cruzi Dm28, 24 h
Method: As a preliminary step, a study of nitroisoxazole derivatives on the epimastigote form of T. cruzi was performed. Despite the epimastigote form not being a clinical form present in mammals, its easy handling has allowed screening for the trypanocidal activity of various compounds. It is worth noting that, during the intracellular life cycle of the parasite, a form similar to the epimastigote, which is biochemically and morphologically identical to the form present in the vector, has been described. […] This is consistent with studies by Fonseca-Berzal et al. […] Additionally, compounds with higher activity have aromatic rings as substituents for nitroisoxazoles, confirming what was described Do […] [40]. […] It has also been determined that the presence of an isoxazole is essential for activity, as its aromatic structure contains a weak nitrogen-oxygen bond that, under different reaction conditions, can undergo ring cleavage, increasing activity. The results obtained on epimastigotes cannot be conclusive for determining potential Chagas agents, so conducting studies on the infective, extracellular, non-replicative trypomastigote form of T. cruzi present in humans is essential. […] RPMI 1640 medium) for 24 h. […] The effects of the compounds on trypomastigote and Vero cell viability were evaluated by tetrazolium salt reduction assay (MTT). […] The plates were kept overnight at 37 °C (28 °C for epimastigotes), and the optical density (OD) was determined using a 96-well microplate reader (Vantaa, Finland) at 570 nm. Under these conditions, the OD is directly proportional to each well's viable number of cells. The experiments were performed in triplicate across three different assays.

T. cruzi trypomastigotes = assay: Generation of ROS (DCFH2-DA fluorescent probe); assay type: cell-based, Trypanosoma cruzi; conditions: 100 µM; for ROS generation (DCF fluorescence intensity): 40 min, vs control without compound
Method: To generate radical species on T. cruzi trypomastigotes, intracellular free radicals were determined using the fluorescent probe dichlorofluorescein (DCF).
The cultures were incubated with a 20 µM DCFH2-DA solution for 15 min at 28 °C. Then, they were centrifuged at 3500 rpm and washed 2 times with phosphate buffer saline (PBS) pH 7.4. Cells loaded with DCFH2-DA were transferred to a Nunc® fluorescence 96-well plate (Thermo Fisher Scientific Inc., Waltham, MA, USA), where the nitroisoxazoles derivates were added at 100 µM. Fluorescence (exi: 488 nm, emi: 528 nm) was recorded for 40 min in a BioTek (Winooski, VT, USA) Synergy HT spectrofluorometer. The area under increase curves over time was determined using Oring 8 software, with areas normalized to control. Results are the means ± SD of three independent experiments.

[4] = system: epimastigote of T. cruzi Dm28; assay: Trypanocidal activity (MTT) on epimastigotes; assay type: cell-based; conditions: Trypanosoma cruzi; for killing at 100 µM: 24 h, n.a = not active, read-out: % T. cruzi Epimastigote (trypanocidal effect); for IC50: T. cruzi Dm28, 24 h, read-out: IC50 T. cruzi E (epimastigote)
Method: As a preliminary step, a study of nitroisoxazole derivatives on the epimastigote form of T. cruzi was performed. Despite the epimastigote form not being a clinical form present in mammals, its easy handling has allowed screening for the trypanocidal activity of various compounds. It is worth noting that, during the intracellular life cycle of the parasite, a form similar to the epimastigote, which is biochemically and morphologically identical to the form present in the vector, has been described. […] RPMI 1640 medium) for 24 h. […] The effects of the compounds on trypomastigote and Vero cell viability were evaluated by tetrazolium salt reduction assay (MTT). […] The plates were kept overnight at 37 °C (28 °C for epimastigotes), and the optical density (OD) was determined using a 96-well microplate reader (Vantaa, Finland) at 570 nm. Under these conditions, the OD is directly proportional to each well’s viable number of cells. The experiments were performed in triplicate across three different assays.

[5] = cyclic voltammetry at 2.0 V/s, DMSO, 0.1 M TBAP, vs Ag/AgCl

Compound	Ipa/Ipc ([1]; cyclic voltammetry at 2.0 V/s)	|ΔEp| ([1]; cyclic voltammetry at 2.0 V/s)	−EpaII [1, 5]	−EpcII [1, 5]	IC50 (Vero mammalian cells) [µM]	melting point	ORAC-FL Index [2]	killing at 100 µM [3] [%]	IC50 [3] [µM]	ROS generation (DCF fluorescence intensity) (T. cruzi trypomastigotes)	ROS generation compared with Nfx (T. cruzi trypomastigotes; Figure 3)	killing at 100 µM [4] [%]	IC50 [4] [µM]	−EpcI [1, 5]	irreversible peak potential, mono-electronic transfer −HNO2/HNO2.− ([1]; cyclic voltammogram, Figure 2b) [V]	−EpaI [1, 5]	IIIc couple potential (formation of a hydroxylamine derivative) ([1]; cyclic voltammogram, Figure 2d) [V]
Cc1noc(/C=C/c2ccc(F)cc2)c1[N+](=O)[O-] [Compound 5, (E)-5-(4-Fluorostyryl)-3-methyl-4-nitroisoxazole]	−0.02	110	0.71	0.82	> 400	169 to 171 °C	0.74 ± 0.05	19 ± 3	> 400	increase in fluorescence intensity	more reactive oxygen species (ROS) than Nfx	47 ± 1	400 ± 3				
Cc1noc(/C=C/c2ccc(O)c(O)c2)c1[N+](=O)[O-] [Compound 8, (E)-4-(2-(3-Methyl-4-nitroisoxazol-5-yl)vinyl)benzene-1,2-diol]	−0.34	150	1.02	1.17	398.1 ± 0.3	270 °C (dec.)	1.0 ± 0.1	16 ± 2	> 400	did not show ROS generation		32 ± 5	> 400	0.93	−0.93		
COc1cc(/C=C/c2onc(C)c2[N+](=O)[O-])ccc1O [Compound 9, (E)-2-Methoxy-4-(2-(3-methyl-4-nitroisoxazol-5-yl)vinyl)phenol]	−0.17	160	1.07	0.91	244.5 ± 0.5	189 to 191 °C	0.7 ± 0.2	15 ± 3	400 ± 2	did not show ROS generation		52 ± 4	166 ± 4	0.66		0.82	−1.14
CCN(CC)c1ccc2cc(/C=C/c3onc(C)c3[N+](=O)[O-])c(=O)oc2c1 [Compound 11, (E)-7-(Diethylamino)-3-(2-(3-methyl-4-nitroisoxazol-5-yl)vinyl)-2H-chromen-2-one]				1.21	125.9 ± 0.1	224 to 226 °C	0.21 ± 0.01	10 ± 4	400 ± 5	increase in fluorescence intensity			> 400	0.79			
Cc1noc(/C=C/c2cn(-c3ccccc3)c3ccccc23)c1[N+](=O)[O-] [Compound 12, (E)-3-Methyl-4-nitro-5-(2-(1-phenyl-1H-indol-3-yl)vinyl)isoxazole]	−0.36	90	0.87	0.96	141 ± 6	196 to 199 °C	0.4 ± 0.1	16 ± 2	> 400	did not show ROS generation		5 ± 2	> 400				
Cc1noc(/C=C/c2cn(-c3ccc(Cl)cc3)c3ccccc23)c1[N+](=O)[O-] [Compound 13, (E)-5-(2-(1-(4-Chlorophenyl)-1H-indol-3-yl)vinyl)-3-methyl-4-nitroisoxazole]	−0.41	90	0.90	0.99	102 ± 6	217 to 220 °C	0.4 ± 0.1	14 ± 3	> 400	did not show ROS generation			> 400	0.75			
Cc1noc(/C=C/c2cccc(Br)c2)c1[N+](=O)[O-] [Compound 16, (E)-5-(3-Bromostyryl)-3-methyl-4-nitroisoxazole]				1.41	141 ± 4	174 to 177 °C	0.54 ± 0.07	22 ± 6	> 400	did not show ROS generation		19 ± 3	> 400	0.78			
Cc1noc(/C=C/c2ccc(Br)cc2)c1[N+](=O)[O-] [Compound 17, (E)-5-(4-Bromostyryl)-3-methyl-4-nitroisoxazole]				1.53	> 400	195 to 198 °C	0.4 ± 0.2	15 ± 5	> 400	did not show ROS generation		27 ± 1	> 400	0.81			
